Assays:
[1] = tested on: colony forming megakaryocyte; settings: CFU-Mk ref 14; cited from earlier work
[2] = tested on: BET bromodomains; test: differential scanning fluorimetry; format: binding; settings: DSF, majority of BET bromodomains
[3] = tested on: CCL2 mRNA expression; settings: LPS-induced TSECs, prior work ref 27; cited from earlier work
[4] = molecular target: NLuc-BRD4-D1 (Homo sapiens, UniProt O60885); test: live-cell NanoBRET competition assay in HEK293T; format: cell-based; settings: 1.25 μM, 2 h at 37 °C
[5] = molecular target: BRD3-D2 (Homo sapiens, UniProt Q15059); test: differential scanning fluorimetry; format: binding; settings: DSF
[6] = molecular target: BRD2-D2 (Homo sapiens, UniProt P25440); test: differential scanning fluorimetry; format: binding; settings: DSF
[7] = tested on: CXCL1 mRNA expression; settings: LPS-induced TSECs, prior work ref 27; cited from earlier work

BRD3-D2, sequence (Q15059 306-415 limits assumed): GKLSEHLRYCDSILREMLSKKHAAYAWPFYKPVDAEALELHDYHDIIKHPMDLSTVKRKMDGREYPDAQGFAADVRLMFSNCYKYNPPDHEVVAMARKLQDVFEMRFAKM
BRD2-D2, sequence (P25440 344-453 limits assumed): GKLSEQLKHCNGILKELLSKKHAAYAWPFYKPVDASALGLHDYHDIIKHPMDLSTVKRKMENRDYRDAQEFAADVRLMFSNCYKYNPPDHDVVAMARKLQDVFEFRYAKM

| Structure (SMILES) | less toxic compared to ABBV-075 [1] | stabilization in melting temperature [2] | CCL2 expression, in words [3] | % inhibition of BRD4-D1 [4] | stabilization in melting temperature [5] | stabilization in melting temperature [6] | CXCL1 expression, in words [7] |
| --- | --- | --- | --- | --- | --- | --- | --- |
| CCNC(=O)c1cc2c(-c3cc(C(C)(C)O)ccc3Oc3c(C)cc(F)cc3C)cn(C)c(=O)c2[nH]1 [ABBV-744] | 18 fold |  |  |  |  |  |  |
| COc1cc2c(cc1-c1c(C)noc1C)ncc1[nH]c(=O)n([C@H](C)c3ccccn3)c12 [IBET-151] |  | > 6 °C | decrease in CCL2 mRNA levels comparable to control levels | 85 ±6% | 3.96 ±0.09 °C | 3.70 ±0.12 °C | significant efficacy in reducing the downstream expression of CXCL1 and CCL2 |
| CC(=O)Nc1c(F)cc(C(=O)N[C@H]2CC[C@H](O)CC2)cc1O[C@@H](C)c1ccccc1 [iBET-BD2] |  |  |  |  |  |  | does not significantly reduce the expression of CXCL1 |
